The target in test [1] is T1, Nonstructural protein 5A (Hepatitis C virus) (UniProt Q5L478).
T1 sequence (whole entry): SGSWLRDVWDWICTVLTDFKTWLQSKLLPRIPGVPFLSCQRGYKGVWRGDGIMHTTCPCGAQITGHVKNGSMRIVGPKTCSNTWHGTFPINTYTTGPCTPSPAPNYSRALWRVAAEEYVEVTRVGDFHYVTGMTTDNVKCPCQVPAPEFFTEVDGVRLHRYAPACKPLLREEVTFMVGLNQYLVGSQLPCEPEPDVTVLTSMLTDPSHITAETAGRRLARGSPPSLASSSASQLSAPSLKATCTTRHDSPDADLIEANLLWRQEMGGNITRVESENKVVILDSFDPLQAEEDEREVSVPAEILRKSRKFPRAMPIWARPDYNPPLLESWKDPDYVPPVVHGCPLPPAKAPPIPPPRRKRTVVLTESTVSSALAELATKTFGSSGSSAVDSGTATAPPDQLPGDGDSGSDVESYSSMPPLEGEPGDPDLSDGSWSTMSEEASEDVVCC
Briefly: Inhibition of wild type HCV genotype 1a NS5A assessed as reduction in viral RNA level by cell based real time PCR method. The conditions noted are these: Hepatitis C virus subtype 1a.

In test [2] the target is T1, Nonstructural protein 5A (Hepatitis C virus). Briefly: Inhibition of wild type HCV genotype 2b NS5A assessed as reduction in viral RNA level by cell based real time PCR method. Particulars: Hepatitis C virus subtype 2b.
For test [3], the system named is T2, Nonstructural protein 5A (Hepatitis C virus), Q5L478 [Y93H].
T2 sequence (whole entry): T1 sequence (whole entry) with Y93H
Briefly: Inhibition of HCV genotype 1a NS5A Y93H mutant assessed as reduction in viral RNA level by cell based real time PCR method. The conditions noted are these: Hepatitis C virus subtype 1a.

Test [4] has as its system Nonstructural protein 5A (Hepatitis C virus), Q5L478 [UNDEFINED MUTATION]. As to the kind of experiment: Inhibition of HCV genotype 1a NS5A L31V mutant assessed as reduction in viral RNA level by cell based real time PCR method. Particulars: Hepatitis C virus subtype 1a.

Residue numbers refer to the chain shown, from its start. Bounds are passed on as bounds.

Drawing on ChEMBL document CHEMBL4425153, “Matched and mixed cap derivatives in the tetracyclic indole class of HCV NS5A inhibitors” (Bioorg Med Chem Lett, 2016), this text covers EC90 for 20 molecules.

As to `CC[C@H](NC(=O)OC)C(=O)N1CCC[C@H]1c1ncc(-c2ccc3c(c2)O[C@@H](c2ccccc2)n2c-3cc3cc(-c4cnc([C@@H]5CCCN5C(=O)[C@H](CC)NC(=O)OC)[nH]4)ccc32)[nH]1`, the EC90 was 0.016 nM in test [1], 65 nM in test [2], > 100 nM in test [3] and 1.6 nM in test [4].
As to `COC(=O)N[C@H](C(=O)N1CCC[C@H]1c1nc(-c2ccc3c(c2)O[C@@H](c2ccccc2)n2c-3cc3cc(-c4c[nH]c([C@@H]5CCCN5C(=O)[C@@H](NC(=O)OC)C(C)C)n4)ccc32)c[nH]1)C(C)C`, the concentration for an effect of 90% (EC90) was 0.006 nM in test [1], 11 nM in test [2], 28 nM in test [3] and 1 nM in test [4].
On to `COC(=O)N[C@H](C(=O)N1CCC[C@H]1c1ncc(-c2ccc3c(c2)O[C@@H](c2ccccc2)n2c-3cc3cc(-c4cnc([C@@H]5CCCN5C(=O)[C@@H](NC(=O)OC)C5CCC(F)(F)CC5)[nH]4)ccc32)[nH]1)C1CCC(F)(F)CC1`, for which the EC90 in test [1] turned out to be 0.03 nM; in test [2], 77 nM; in test [3], 39 nM; in test [4] it was 0.65 nM.
For `CN(C)[C@@H](C(=O)N1CCC[C@H]1c1ncc(-c2ccc3c(c2)O[C@@H](c2ccccc2)n2c-3cc3cc(-c4cnc([C@@H]5CCCN5C(=O)[C@@H](c5ccccc5)N(C)C)[nH]4)ccc32)[nH]1)c1ccccc1` the same measures were 0.3 nM, 0.87 nM, > 100 nM and 2.1 nM.
For `COC(=O)N[C@H](C(=O)N1CCC[C@H]1c1ncc(-c2ccc3c(c2)O[C@@H](c2ccccc2)n2c-3cc3cc(-c4cnc([C@@H]5CCCN5C(=O)[C@@H](NC(=O)OC)[C@@H](C)O)[nH]4)ccc32)[nH]1)[C@@H](C)O` the same measures were > 1 nM, > 100 nM, > 100 nM and > 100 nM.
`CCN(CC)[C@@H](C(=O)N1CCC[C@H]1c1ncc(-c2ccc3c(c2)cc2n3[C@H](c3ccccc3)Oc3cc(-c4cnc([C@@H]5CCCN5C(=O)[C@@H](NC(=O)OC)C(C)C)[nH]4)ccc3-2)[nH]1)c1ccccc1`: the figures for the EC90 in test [1], in test [2] and in test [3] were 0.045 nM, 4 nM and 44 nM, respectively.
With `O=C([C@@H](c1ccccc1)N1CCCC1)N1CCC[C@H]1c1ncc(-c2ccc3c(c2)O[C@@H](c2ccccc2)n2c-3cc3cc(-c4cnc([C@@H]5CCCN5C(=O)[C@@H](c5ccccc5)N5CCCC5)[nH]4)ccc32)[nH]1`, the 90% effect concentration (EC90) in test [1] is 3.9 nM; in test [2], 13 nM; in test [3] it was > 100 nM; in test [4], 3.9 nM.
For `COC(=O)N[C@H](C(=O)N1CCC[C@H]1c1ncc(-c2ccc3c(c2)O[C@@H](c2ccccc2)n2c-3cc3cc(-c4cnc([C@@H]5CCCN5C(=O)[C@@H](NC(=O)OC)[C@@H](C)OC)[nH]4)ccc32)[nH]1)[C@@H](C)OC`, the EC90 in test [1] is 0.019 nM; in test [2], 17 nM; in test [3] it was > 100 nM.
As for `CN(C)[C@@H](C(=O)N1CCC[C@H]1c1ncc(-c2ccc3c(c2)O[C@@H](c2ccccc2)n2c-3cc3cc(-c4cnc([C@@H]5CCCN5C(=O)[C@@H](c5ccc(F)cc5)N(C)C)[nH]4)ccc32)[nH]1)c1ccc(F)cc1`, the EC90 in test [1] is 0.98 nM; in test [2], > 100 nM; in test [3], > 100 nM; in test [4] it was > 100 nM.
On to `COC(=O)N[C@H](C(=O)N1CCC[C@H]1c1ncc(-c2ccc3c(c2)O[C@@H](c2ccccc2)n2c-3cc3cc(-c4cnc([C@@H]5CCCN5C(=O)C5(NC(=O)OC)CCCCC5)[nH]4)ccc32)[nH]1)C(C)C`, for which the EC90 in test [1] is 0.035 nM; in test [2], > 100 nM; in test [3] it was > 100 nM; in test [4] it was 14.7 nM.
In the case of `COCC[C@H](NC(=O)OC)C(=O)N1CCC[C@H]1c1ncc(-c2ccc3c(c2)O[C@@H](c2ccccc2)n2c-3cc3cc(-c4cnc([C@@H]5CCCN5C(=O)[C@H](CCOC)NC(=O)OC)[nH]4)ccc32)[nH]1`, the 90% effect concentration (EC90) was found to be 0.061 nM in test [1], 91 nM in test [2], 46 nM in test [3] and 2.1 nM in test [4].
For `COC(=O)N[C@@H](C)C(=O)N1CCC[C@H]1c1ncc(-c2ccc3c(c2)O[C@@H](c2ccccc2)n2c-3cc3cc(-c4cnc([C@@H]5CCCN5C(=O)[C@H](C)NC(=O)OC)[nH]4)ccc32)[nH]1` the same measures were 0.042 nM, > 100 nM, > 100 nM and 6.4 nM.
For `COC(=O)N[C@H](C(=O)N1CCC[C@H]1c1ncc(-c2ccc3c(c2)O[C@@H](c2ccccc2)n2c-3cc3cc(-c4cnc([C@@H]5CCCN5C(=O)[C@@H](NC(=O)OC)[C@@H](C)OC)[nH]4)ccc32)[nH]1)C(C)C`, the figures for the EC90 in test [1], in test [2] and in test [3] were 0.039 nM, 35 nM and 54 nM, respectively.
Turning to `CCN(CC)[C@@H](C(=O)N1CCC[C@H]1c1ncc(-c2ccc3c(c2)O[C@@H](c2ccccc2)n2c-3cc3cc(-c4cnc([C@@H]5CCCN5C(=O)[C@@H](c5ccccc5)N(CC)CC)[nH]4)ccc32)[nH]1)c1ccccc1`, the EC90 in test [1] was 0.27 nM; in test [2], 3.1 nM; in test [3] it was > 100 nM; in test [4], 0.6 nM.
For `O=C([C@H]1CCCO1)N1CCC[C@H]1c1ncc(-c2ccc3c(c2)O[C@@H](c2ccccc2)n2c-3cc3cc(-c4cnc([C@@H]5CCCN5C(=O)[C@H]5CCCO5)[nH]4)ccc32)[nH]1` the same measures were 1 nM, > 100 nM, > 100 nM and > 100 nM.
With `COC(=O)N[C@H](C(=O)N1CCC[C@H]1c1ncc(-c2ccc3c(c2)O[C@@H](c2ccccc2)n2c-3cc3cc(-c4cnc([C@@H]5CCCN5C(=O)[C@@H](NC(=O)OC)C5CCOCC5)[nH]4)ccc32)[nH]1)C(C)C`, the EC90 in test [1] worked out at 0.06 nM; in test [2], 9 nM; in test [3], 11 nM; in test [4], 0.6 nM.
In the same order, the values of `COC(=O)N[C@H](C(=O)N1CCC[C@H]1c1ncc(-c2ccc3c(c2)O[C@@H](c2ccccc2)n2c-3cc3cc(-c4cnc([C@@H]5CCCN5C(=O)[C@@H](NC(=O)OC)C5CCCC5)[nH]4)ccc32)[nH]1)C1CCCC1` are 0.014 nM, 52 nM, > 100 nM and 4.1 nM.
In the same order, the values of `CC[C@H](C)[C@H](NC(=O)OC)C(=O)N1CCC[C@H]1c1ncc(-c2ccc3c(c2)O[C@@H](c2ccccc2)n2c-3cc3cc(-c4cnc([C@@H]5CCCN5C(=O)[C@@H](NC(=O)OC)[C@@H](C)CC)[nH]4)ccc32)[nH]1` are 0.011 nM, > 100 nM, > 100 nM and 1.8 nM.
In the same order, the values of `COC(=O)N[C@H](C(=O)N1CCC[C@H]1c1ncc(-c2ccc3c(c2)cc2n3[C@H](c3ccccc3)Oc3cc(-c4cnc([C@@H]5CCCN5C(=O)[C@@H](NC(=O)OC)[C@@H](C)OC)[nH]4)ccc3-2)[nH]1)C(C)C` are 0.062 nM, 5 nM, 50 nM and 1.1 nM.
For the molecule `COC(=O)NC1(C(=O)N2CCC[C@H]2c2ncc(-c3ccc4c(c3)O[C@@H](c3ccccc3)n3c-4cc4cc(-c5cnc([C@@H]6CCCN6C(=O)C6(NC(=O)OC)CCOCC6)[nH]5)ccc43)[nH]2)CCOCC1`, the EC90 is 1.4 nM in test [1], > 100 nM in test [2], > 100 nM in test [3] and > 100 nM in test [4].
